What was measured:
[1] = Acute toxicity, lethal dose 50 (LD50), intraperitoneal; design: species or system albino rats I.C.R. Swiss; conditions: rat, in vivo, ip
Source text: The lethal dose 50 (LD50) has been determined on albino rats I.C.R. Swiss, of both sexes, weighing 24 ± 2 g.

[2] = system: convulsions and lethal effect of cardiazol; assay: Anti-convulsant activity against cardiazol; format: in vivo, albino rats I.C.R. Swiss; conditions: for number of animals with convulsions / number of dead animals: after 30 minutes cardiazol 1 mg/rat, 10 rats per lot
Method: There have been employed 4 lots of 10 rats per lot, which received:
Lot (1): I 180 mg/kg and after 30 minutes cardiazol 1 mg/rat.
Lot (2): II 35 mg/kg and after 30 minutes cardiazol 1 mg/rat.
Lot (3): III 18 mg/kg and after 30 minutes cardiazol 1 mg/rat.

[3] = system: hypnotic effect of the pentobarbital; assay: Potentiation of barbiturates (sodium pentobarbital hypnotic effect); format: in vivo, albino rats I.C.R. Swiss; conditions: for Asleep after 180 minutes (number of animals) / Awake after 180 minutes (number of animals): 30 min before sodium pentobarbital 60 mg/kg i.p., of 20; for potentiation of the hypnotic effect of the pentobarbital (in words): sodium pentobarbital 60 mg/kg i.p., I 180, II 35, III 18, Diazepam 3,6 mg/kg
Method: Albino rats I.C.R. Swiss weighing 25 ± 2 g have been used.
Lot (1): Sodium pentobarbital 60 mg/kg + I (180 mg/kg).
Lot (2): Sodium pentobarbital 60 mg/kg + II (35 mg/kg).
Lot (3): Sodium pentobarbital 60 mg/kg + III (18 mg/kg).
Lot (5): Sodium pentobarbital 60 mg/kg + distilled H2 O (control lot).
The number of animals awake after 180 minutes after the administration of the barbiturate are noted. The following results have been obtained according to the statistic test of Chi^2 : […]

[4] = II 35 mg/kg, cardiazol 1 mg/rat

CCCC(CCC)C(=O)NCc1ccccn1 [Compound I, N-(2-picolyl)-dipropylacetamide]
LD50 [1]: > 1600 mg/kg | number of animals with convulsions ([2]; I 180 mg/kg, control 10): 9 | number of dead animals ([2]; I 180 mg/kg, control 10): 7 | protection of the lethal effect of the cardiazol ([2]; I 180 mg/kg, cardiazol 1 mg/rat): 30% | Asleep after 180 minutes (number of animals) ([3]; I 180 mg/kg, control 1, p<0.001 (Chi^2)): 17 | Awake after 180 minutes (number of animals) ([3]; I 180 mg/kg, control 19, p<0.001 (Chi^2)): 3 | potentiation of the hypnotic effect of the pentobarbital (in words) [3]: potentiates clearly the hypnotic effect of the pentobarbital

CCCC(CCC)C(=O)NCc1cccnc1 [Compound II, N-(3-picolyl)-dipropylacetamide]
LD50 [1]: 95 mg/kg | number of animals with convulsions ([2]; II 35 mg/kg, control 10): 0 | number of dead animals ([2]; II 35 mg/kg, control 10): 0 | protection of the convulsions [2, 4]: 100% | protection of the lethal effect of the cardiazol [2, 4]: 100% | Asleep after 180 minutes (number of animals) ([3]; II 35 mg/kg, control 1, p<0.001 (Chi^2)): 14 | Awake after 180 minutes (number of animals) ([3]; II 35 mg/kg, control 19, p<0.001 (Chi^2)): 6 | potentiation of the hypnotic effect of the pentobarbital (in words) [3]: potentiates clearly the hypnotic effect of the pentobarbital

CCCC(CCC)C(=O)NCc1ccncc1 [Compound III, N-(4-picolyl) - dipropylacetamide]
LD50 [1]: 264 mg/kg | number of dead animals ([2]; III 18 mg/kg, control 0): 0 | number of animals with convulsions ([2]; III 18 mg/kg, control 5): 1 | protection of the convulsion effect of cardiazol ([2]; III 18 mg/kg, cardiazol 1 mg/rat): 40% | Asleep after 180 minutes (number of animals) ([3]; III 18 mg/kg, control 4, p<0.001 (Chi^2)): 19 | Awake after 180 minutes (number of animals) ([3]; III 18 mg/kg, control 16, p<0.001 (Chi^2)): 1 | potentiation of the hypnotic effect of the pentobarbital (in words) [3]: potentiates clearly the hypnotic effect of the pentobarbital

CN1C(=O)CN=C(c2ccccc2)c2cc(Cl)ccc21 [Diazepam, reference compound]
anti-convulsant / anti-epileptic activity (in words) ([2]; general statement): Results have been positive with cardiazol | Asleep after 180 minutes (number of animals) ([3]; Diazepam 3,6 mg/kg, control 4, p<0.02 (Chi^2)): 15 | Awake after 180 minutes (number of animals) ([3]; Diazepam 3,6 mg/kg, control 16, p<0.02 (Chi^2)): 5 | potentiation of the hypnotic effect of the pentobarbital (in words) [3]: potentiates clearly the hypnotic effect of pentobarbital, but not as much as the three compounds according to this invention

Source: patent US3951995A, “Method for industrial production of N-substituted dipropylacetamides” (Laboratorios Made, S.A., priority 1973, dated 1976)
